Measured values: patent US9334279B2, “Hepatitis C virus inhibitors” (BRISTOL-MYERS SQUIBB COMPANY, priority 2012, dated 2016)

Legend:
[1] = system: HCV GT1b(Con1) replicon; assay: HCV replicon luciferase reporter assay, genotype 1b; format: cell-based, HCV genotype 1b; settings: Hepatitis C virus, 72 h, HUH-7 cells, Renilla luciferase, 3 days incubation, read-out: LE_1b (EC50, range)
Summary of the method: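 HUH-7 cells stably carrying a Con1 GT1b replicon with Renilla luciferase and Ser1179Ile adaptive mutation; 3.0×10^3 cells/well, DMEM 4% FCS, 0.5% DMSO, twenty-point 3-fold titration, 3 days 37 °C. Luminescence 2 h after 7.5 μM EnduRen; EC50 by four-parameter logistic fit. CC50 from multiplexed Cell Titer-Blue fluorescence (8 h).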

[2] = system: HCV GT1a(H77) replicon; assay: HCV replicon luciferase reporter assay, genotype 1a; format: cell-based, HCV genotype 1a; settings: Hepatitis C virus, 72 h, HUH-7 cells, Renilla luciferase, 3 days incubation, read-out: LE_1a (EC50, range)
Summary of the method: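 Huh-7 cells stably carried a GT1a(H77) Renilla luciferase replicon with NS3 P1496L and NS5A S2204I adaptive mutations. Luminescence was read after 2 h with 7.5 μM EnduRen, and EC50 came from a four-parameter logistic fit; CC50 came from multiplexed Cell Titer-Blue (8 h).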

SMILES | EC50 [1] [nM] | EC50 [2] [nM]
CC(C)Oc1ccc(-c2cc(O[C@@H]3C[C@H]4C(=O)N[C@]5(C(=O)NS(=O)(=O)C6(C)CC6)C[C@H]5/C=C\CC[C@@H](C)C[C@@H](C)[C@H](NC(=O)OC5(C(F)(F)F)CCCOC5)C(=O)N4C3)cc(-c3cscn3)n2)cc1 (stereo partly drawn) [Compound 1052, 3-(trifluoromethyl)tetrahydro-2H-pyran-3-yl ((2R,6S,7R,9R,13aS,14aR,16aS,Z)-2-((2-(4-isopropoxyphenyl)-6-(thiazol-4-yl)pyridin-4-yl)oxy)-7,9-dimethyl-14a-(((1-methylcyclopropyl)sulfonyl)carbamoyl)-5,16-dioxo-1,2,3,5,6,7,8,9,10,11,13a,14,14a,15,16,16a-hexadecahydrocyclopropa[e]pyrrolo[1,2-a][1,4]diazacyclopentadecin-6-yl)carbamate] | 0.51 to 1 | 0.1 to 0.5
COc1cccc(-c2cc(O[C@@H]3C[C@H]4C(=O)N[C@]5(C(=O)NS(=O)(=O)C6(C)CC6)C[C@H]5/C=C\CC[C@@H](C)C[C@@H](C)[C@H](NC(=O)OC(C)(C)C(F)(F)F)C(=O)N4C3)cc(-c3ccc(OC(C)C)cc3)n2)n1 [Compound 1011, 1,1,1-trifluoro-2-methylpropan-2-yl ((2R,6S,7R,9R,13aS,14aR,16aS,Z)-2-((6-(4-isopropoxyphenyl)-6′-methoxy-[2,2′-bipyridin]-4-yl)oxy)-7,9-dimethyl-14a-(((1-methylcyclopropyl)sulfonyl)carbamoyl)-5,16-dioxo-1,2,3,5,6,7,8,9,10,11,13a,14,14a,15,16,16a-hexadecahydrocyclopropa[e]pyrrolo[1,2-a][1,4]diazacyclopentadecin-6-yl)carbamate] | 1.01 to 5 | 1.01 to 5
CC(C)Oc1ccc(-c2cc(O[C@@H]3C[C@H]4C(=O)N[C@]5(C(=O)NS(=O)(=O)C6(C)CC6)C[C@H]5/C=C\CC[C@@H](C)C[C@@H](C)[C@H](NC(=O)OC(C)(C)C(F)(F)F)C(=O)N4C3)cc(-c3cnccn3)n2)cc1 [Compound 1001, 1,1,1-trifluoro-2-methylpropan-2-yl ((2R,6S,7R,9R,13aS,14aR,16aS,Z)-2-((2-(4-isopropoxyphenyl)-6-(pyrazin-2-yl)pyridin-4-yl)oxy)-7,9-dimethyl-14a-(((1-methylcyclopropyl)sulfonyl)carbamoyl)-5,16-dioxo-1,2,3,5,6,7,8,9,10,11,13a,14,14a,15,16,16a-hexadecahydrocyclopropa[e]pyrrolo[1,2-a][1,4]diazacyclopentadecin-6-yl)carbamate] | 0.51 to 1 | 1.01 to 5
CC[C@@H]1O[C@H](C)CC/C=C\[C@@H]2C[C@@]2(C(=O)NS(=O)(=O)C2(C)CC2)NC(=O)[C@@H]2C[C@@H](Oc3cc(-c4ccc(OC(C)C)cc4)nc(-c4ccccn4)c3)CN2C(=O)[C@H]1NC(=O)OC1(C(F)(F)F)CCCOC1 (stereo partly drawn) [Compound 1037, 3-(trifluoromethyl)tetrahydro-2H-pyran-3-yl ((2R,6S,7S,9R,13aS,14aR,16aS,Z)-7-ethyl-2-((6-(4-isopropoxyphenyl)-[2,2′-bipyridin]-4-yl)oxy)-9-methyl-14a-(((1-methylcyclopropyl)sulfonyl)carbamoyl)-5,16-dioxo-2,3,5,6,7,9,10,11,13a,14,14a,15,16,16a-tetradecahydro-1H-cyclopropa[i]pyrrolo[1,2-e][1,5,8]oxadiazacyclopentadecin-6-yl)carbamate] | 0.1 to 0.5 | 1.01 to 5
Cc1cnc(-c2cc(O[C@@H]3C[C@H]4C(=O)N[C@]5(C(=O)NS(=O)(=O)C6(C)CC6)C[C@H]5/C=C\CC[C@@H](C)C[C@@H](C)[C@H](NC(=O)OC5(C(F)(F)F)CCCOC5)C(=O)N4C3)ccn2)s1 (stereo partly drawn) [Compound 1044, 3-(trifluoromethyl)tetrahydro-2H-pyran-3-yl ((2R,6S,7R,9R,13aS,14aR,16aS,Z)-7,9-dimethyl-14a-(((1-methylcyclopropyl)sulfonyl)carbamoyl)-2-((2-(5-methylthiazol-2-yl)pyridin-4-yl)oxy)-5,16-dioxo-1,2,3,5,6,7,8,9,10,11,13a,14,14a,15,16,16a-hexadecahydrocyclopropa[e]pyrrolo[1,2-a][1,4]diazacyclopentadecin-6-yl)carbamate] | 0.51 to 1 | 1.01 to 5
